In ChEMBL document CHEMBL1208701, “Structure-activity relationship of indoline-2-carboxylic acid N-(substituted)phenylamide derivatives” (Bioorg Med Chem Lett, 2010):

What was measured:
NUGC-3 = assay: Cytotoxicity against human NUGC3 cells; type: functional
HCT-15 = assay: Cytotoxicity against human HCT15 cells; type: functional
PC-3 = assay: Cytotoxicity against human PC3 cells; type: functional
[1] = Inhibition of LPS-induced NF-kappaB transcriptional activity in mouse RAW264.7 cells; type: cell-based
ACHN = assay: Cytotoxicity against human ACHN cells; type: functional
NCI-H23 = assay: Cytotoxicity against human NCI-H23 cells; type: functional
MDA-MB-231 = assay: Cytotoxicity against human MDA-MB-231 cells; type: functional
RAW264.7 = assay: Inhibition of LPS-induced NF-kappaB transcriptional activity in mouse RAW264.7 cells at 100 uM; type: cell-based

SMILES	IC50 [1] [µM]	GI50 (NUGC-3) [µM]	GI50 (HCT-15) [µM]	GI50 (PC-3) [µM]	GI50 (ACHN) [µM]	GI50 (NCI-H23) [µM]	GI50 (MDA-MB-231) [µM]	inhibition (RAW264.7) [%]
CCCCCCCCC(=O)N1c2ccccc2CC1C(=O)Nc1ccc(C(F)(F)F)cc1 (stereo not given)	> 100	3.45	2.07	1.86	3.78	1.62	> 10	–
Cc1ccc(NC(=O)C2Cc3ccccc3N2)cc1 (stereo not given)	> 100	–	–	–	–	–	–	41
CC(C)(C)OC(=O)N1c2ccccc2CC1C(=O)Nc1ccc([N+](=O)[O-])cc1 (stereo not given)	–	–	–	2.79	–	2.52	–	> 100
COc1ccc(NC(=O)C2Cc3ccccc3N2C(=O)OC(C)(C)C)cc1 (stereo not given)	> 100	–	–	–	–	–	–	29
CC(C)(C)OC(=O)N1c2ccccc2CC1C(=O)Nc1ccc(Cl)cc1 (stereo not given)	> 100	–	–	–	–	–	–	31
O=C(Nc1ccc([N+](=O)[O-])cc1)C1Cc2ccccc2N1 (stereo not given)	> 100	–	–	–	–	–	–	41
O=C(Nc1cc(Cl)ccc1Cl)C1Cc2ccccc2N1 (stereo not given)	> 100	–	–	–	–	–	–	34
O=C(Nc1cccc(Cl)c1)C1Cc2ccccc2N1 (stereo not given)	–	–	–	–	–	–	–	63
Cc1ccc(NC(=O)C2Cc3ccccc3N2C(=O)OC(C)(C)C)cc1C (stereo not given)	–	–	–	–	–	–	–	64
Cc1ccc(NC(=O)C2Cc3ccccc3N2C(=O)OC(C)(C)C)cc1 (stereo not given)	> 100	–	–	–	–	–	–	37
COc1cc(NC(=O)C2Cc3ccccc3N2C(=O)OC(C)(C)C)cc(OC)c1 (stereo not given)	–	–	–	–	–	–	–	88
Cc1cccc(NC(=O)C2Cc3ccccc3N2C(=O)OC(C)(C)C)c1 (stereo not given)	–	–	–	–	–	–	–	87
CC(=O)N1c2ccccc2CC1C(=O)Nc1ccc(C(F)(F)F)cc1 (stereo not given)	> 100	> 10	> 10	> 10	> 10	> 10	> 10	–
CC(C)(C)OC(=O)N1c2ccccc2CC1C(=O)Nc1cccc(C(F)(F)F)c1 (stereo not given)	–	–	–	3.34	–	6.34	–	> 100
COc1ccc(NC(=O)C2Cc3ccccc3N2)cc1 (stereo not given)	> 100	–	–	–	–	–	–	37
COc1cccc2c1C(=O)c1c(O)c3c(c(O)c1C2=O)C[C@@](O)(C(=O)CO)C[C@@H]3O[C@H]1C[C@H](N)[C@H](O)[C@H](C)O1 [DOXORUBICIN]	–	0.202	2.18	0.317	0.182	0.178	0.194	–
CC(C)(C)OC(=O)N1c2ccccc2CC1C(=O)Nc1ccc(O)cc1 (stereo not given)	> 100	–	–	–	–	–	–	42
Cc1ccc(S(=O)(=O)N2c3ccccc3CC2C(=O)Nc2ccc(C(F)(F)F)cc2)cc1 (stereo not given)	> 100	> 10	> 10	6.68	> 10	8.97	> 10	–
Cc1ccccc1NC(=O)C1Cc2ccccc2N1 (stereo not given)	> 100	–	–	–	–	–	–	39
Cc1ccc(S(=O)(=O)N2c3ccccc3CC2C(=O)Nc2cc(Cl)cc(Cl)c2)cc1 (stereo not given)	> 100	> 10	> 10	> 10	> 10	7.53	> 10	–
Cc1cccc(NC(=O)C2Cc3ccccc3N2)c1 (stereo not given)	> 100	–	–	–	–	–	–	29

SMILES	IC50 [1] [µM]	GI50 (NUGC-3) [µM]	GI50 (HCT-15) [µM]	GI50 (PC-3) [µM]	GI50 (ACHN) [µM]	GI50 (NCI-H23) [µM]	GI50 (MDA-MB-231) [µM]	inhibition (RAW264.7) [%]
O=C(Nc1ccccc1O)C1Cc2ccccc2N1 (stereo not given)	> 100	–	–	–	–	–	–	37
Cc1ccc(C)c(NC(=O)C2Cc3ccccc3N2)c1 (stereo not given)	> 100	–	–	–	–	–	–	47
CC(C)(C)OC(=O)N1c2ccccc2CC1C(=O)Nc1ccccc1C(F)(F)F (stereo not given)	> 100	–	–	–	–	–	–	38
COc1cccc(NC(=O)C2Cc3ccccc3N2)c1 (stereo not given)	–	–	–	–	–	–	–	64
CC(C)(C)OC(=O)N1c2ccccc2CC1C(=O)Nc1ccccc1Cl (stereo not given)	–	–	–	–	–	–	–	50
O=C(Nc1ccccc1[N+](=O)[O-])C1Cc2ccccc2N1 (stereo not given)	> 100	–	–	–	–	–	–	41
O=C(Nc1cccc([N+](=O)[O-])c1)C1Cc2ccccc2N1 (stereo not given)	> 100	–	–	–	–	–	–	49
O=C(Nc1ccc(Cl)c(Cl)c1)C1Cc2ccccc2N1 (stereo not given)	–	–	–	–	–	11.6	–	72
O=C(Nc1cc(Cl)cc(Cl)c1)C1Cc2ccccc2N1 (stereo not given)	–	–	–	2.53	–	12.3	–	98
Cc1cc(C)cc(NC(=O)C2Cc3ccccc3N2)c1 (stereo not given)	85	–	–	–	–	–	–	56
CC(C)(C)OC(=O)N1c2ccccc2CC1C(=O)Nc1ccccc1 (stereo not given)	> 100	–	–	–	–	–	–	30
CC(C)(C)OC(=O)N1c2ccccc2CC1C(=O)Nc1ccccc1O (stereo not given)	–	–	–	–	–	–	–	93
O=C(Nc1cccc(O)c1)C1Cc2ccccc2N1 (stereo not given)	> 100	–	–	–	–	–	–	30
COc1ccc(OC)c(NC(=O)C2Cc3ccccc3N2)c1 (stereo not given)	> 100	–	–	–	–	–	–	47
COc1cc(NC(=O)C2Cc3ccccc3N2)cc(OC)c1 (stereo not given)	> 100	–	–	–	–	–	–	41
COc1ccccc1NC(=O)C1Cc2ccccc2N1C(=O)OC(C)(C)C (stereo not given)	–	–	–	–	–	–	–	76
COc1cccc(NC(=O)C2Cc3ccccc3N2C(=O)OC(C)(C)C)c1 (stereo not given)	> 100	–	–	–	–	–	–	38
COc1ccc(NC(=O)C2Cc3ccccc3N2)cc1OC (stereo not given)	> 100	–	–	–	–	–	–	15
CC(C)(C)OC(=O)N1c2ccccc2CC1C(=O)Nc1ccccc1[N+](=O)[O-] (stereo not given)	–	–	–	–	–	–	–	63
CC(C)(C)OC(=O)N1c2ccccc2CC1C(=O)Nc1cccc(Cl)c1 (stereo not given)	–	–	–	–	–	3.23	–	> 100
COc1ccc(OC)c(NC(=O)C2Cc3ccccc3N2C(=O)OC(C)(C)C)c1 (stereo not given)	–	–	–	–	–	–	–	76

The next lines start with results.

IC50 [1] [µM]	SMILES	GI50 (NUGC-3) [µM]	GI50 (HCT-15) [µM]	GI50 (PC-3) [µM]	GI50 (ACHN) [µM]	GI50 (NCI-H23) [µM]	GI50 (MDA-MB-231) [µM]	inhibition (RAW264.7) [%]
14.1	CC(C)(C)OC(=O)N1c2ccccc2CC1C(=O)Nc1cccc([N+](=O)[O-])c1 (stereo not given)	–	–	–	–	–	–	94
5.9	CC(NC(=O)OC(C)(C)C)C(=O)N1c2ccccc2CC1C(=O)Nc1cc(Cl)cc(Cl)c1 (stereo not given)	6.21	4.33	4.43	5.04	6.71	–	–
62.5	Cc1ccccc1NC(=O)C1Cc2ccccc2N1C(=O)OC(C)(C)C (stereo not given)	–	–	–	–	–	–	68
46.5	O=C(Nc1cc(Cl)cc(Cl)c1)C1Cc2ccccc2N1C(=O)c1ccccc1 (stereo not given)	7.97	–	6.84	8.26	4.28	6.42	–
58.7	CC(C)(C)OC(=O)N1c2ccccc2CC1C(=O)Nc1cccc(O)c1 (stereo not given)	–	–	–	–	–	–	75
45.9	CC(C)(C)OC(=O)N1c2ccccc2CC1C(=O)Nc1cc(Cl)ccc1Cl (stereo not given)	–	–	–	–	–	–	71
79.2	COc1ccccc1NC(=O)C1Cc2ccccc2N1 (stereo not given)	–	–	–	–	–	–	60
12	CC(C)(C)OC(=O)N1c2ccccc2CC1C(=O)Nc1ccc(C(F)(F)F)cc1 (stereo not given)	–	–	2.02	–	3.21	–	> 100
12	O=C(Nc1cc(C(F)(F)F)cc(C(F)(F)F)c1)C1Cc2ccccc2N1 (stereo not given)	–	–	0.794	–	0.648	–	96
12.6	CC(C)(C)OC(=O)N1c2ccccc2CC1C(=O)Nc1ccc(Cl)c(Cl)c1 (stereo not given)	–	–	4.66	–	3.19	–	97
13.5	O=C(Nc1ccc(C(F)(F)F)cc1)C1Cc2ccccc2N1C(=O)c1ccccc1 (stereo not given)	8.72	5.49	–	–	4.58	–	–
12.7	CC(C)(C)C(=O)N1c2ccccc2CC1C(=O)Nc1ccc(C(F)(F)F)cc1 (stereo not given)	6.58	5.54	3.89	5.63	3.65	7.31	–
79.4	O=C(Nc1ccccc1C(F)(F)F)C1Cc2ccccc2N1 (stereo not given)	–	–	–	–	–	–	61
69.7	O=C(Nc1ccccc1Cl)C1Cc2ccccc2N1 (stereo not given)	–	–	–	–	–	–	62
43.3	Cc1ccc(NC(=O)C2Cc3ccccc3N2)cc1C (stereo not given)	–	–	–	–	–	–	87
14.5	CC(C)(C)C(=O)N1c2ccccc2CC1C(=O)Nc1cc(Cl)cc(Cl)c1 (stereo not given)	3.35	3.81	4.18	3.68	3.46	4.97	–
52.2	COc1ccc(NC(=O)C2Cc3ccccc3N2C(=O)OC(C)(C)C)cc1OC (stereo not given)	–	–	–	–	–	–	65
14.9	CC(C)(C)OC(=O)N1c2ccccc2CC1C(=O)Nc1cc(C(F)(F)F)cc(C(F)(F)F)c1 (stereo not given)	–	–	0.838	–	1.52	–	–
79.2	O=C(Nc1ccc(C(F)(F)F)cc1)C1Cc2ccccc2N1 (stereo not given)	–	–	–	–	–	–	56
34.1	CC(=O)N1c2ccccc2CC1C(=O)Nc1cc(Cl)cc(Cl)c1 (stereo not given)	7.86	8.68	6.37	> 10	7.68	> 10	–
70.7	O=C(Nc1ccc(Cl)cc1)C1Cc2ccccc2N1 (stereo not given)	–	–	–	–	–	–	62
46	O=C(Nc1cccc(C(F)(F)F)c1)C1Cc2ccccc2N1 (stereo not given)	–	–	4.24	–	4.96	–	99
16.6	Cc1cc(C)cc(NC(=O)C2Cc3ccccc3N2C(=O)OC(C)(C)C)c1 (stereo not given)	–	–	–	–	–	–	78
50	Cc1ccc(C)c(NC(=O)C2Cc3ccccc3N2C(=O)OC(C)(C)C)c1 (stereo not given)	–	–	–	–	–	–	75
66.2	O=C(Nc1ccc(O)cc1)C1Cc2ccccc2N1 (stereo not given)	–	–	–	–	–	–	63
10.1	CC(C)(C)OC(=O)N1c2ccccc2CC1C(=O)Nc1cc(Cl)cc(Cl)c1 (stereo not given)	–	–	1.68	–	3.39	–	–
71.6	O=C(Nc1ccccc1)C1Cc2ccccc2N1 (stereo not given)	–	–	–	–	–	–	65
12.6	CCCCCCCCC(=O)N1c2ccccc2CC1C(=O)Nc1cc(Cl)cc(Cl)c1 (stereo not given)	1.52	1.73	1.61	1.89	1.28	3.57	–
40.1	COc1cc2c(cc1O)CCC(C(=O)Nc1ccccc1)O2 (stereo not given)	–	–	–	–	9.32	–	90
